Laboratory results from ChEMBL document CHEMBL1201862, “PubChem BioAssay data set” (2004).
One block for each molecule: values may come before it. Calls of active or inactive are those of the source.

Columns and labels:
Type in all cases: functional
[1] = target: T1, Heat shock factor protein 1 (Mus musculus, UniProt P38532); test: enhancement of HSF1-driven luciferase signal – cell-based, NIH3T3, luminescence, dose retest, confirmation (AID 435004);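 note: stress induced by proteasome inhibitor MG132 added 30 min after compound; luciferase reporter driven by HSF1 response element in NIH3T3 cells; actives raise luminescence as potentiators of the MG132 stress response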
T1 sequence (P38532 whole entry): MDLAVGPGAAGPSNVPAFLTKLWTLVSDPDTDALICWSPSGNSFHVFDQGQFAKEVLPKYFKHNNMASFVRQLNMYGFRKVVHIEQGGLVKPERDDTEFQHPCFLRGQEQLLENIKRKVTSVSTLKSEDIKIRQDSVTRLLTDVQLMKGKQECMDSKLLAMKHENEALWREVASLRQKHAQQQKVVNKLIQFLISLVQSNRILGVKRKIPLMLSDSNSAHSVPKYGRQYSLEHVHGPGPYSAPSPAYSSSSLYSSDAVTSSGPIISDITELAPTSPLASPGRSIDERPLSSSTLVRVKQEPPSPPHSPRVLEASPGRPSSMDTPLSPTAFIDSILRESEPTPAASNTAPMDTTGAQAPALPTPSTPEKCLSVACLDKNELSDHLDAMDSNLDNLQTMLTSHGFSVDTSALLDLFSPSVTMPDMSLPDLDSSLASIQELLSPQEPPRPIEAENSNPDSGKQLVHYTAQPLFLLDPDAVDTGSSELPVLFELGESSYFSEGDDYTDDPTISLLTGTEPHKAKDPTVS

[2] = target: T2, Neuropeptide Y receptor type 1 (Homo sapiens, UniProt P25929); test: Fluorescence-based counterscreen for agonists of NPY-Y2: cell-based high-throughput dose response assay for agonists of NPY-Y1.
T2 sequence (P25929 whole entry): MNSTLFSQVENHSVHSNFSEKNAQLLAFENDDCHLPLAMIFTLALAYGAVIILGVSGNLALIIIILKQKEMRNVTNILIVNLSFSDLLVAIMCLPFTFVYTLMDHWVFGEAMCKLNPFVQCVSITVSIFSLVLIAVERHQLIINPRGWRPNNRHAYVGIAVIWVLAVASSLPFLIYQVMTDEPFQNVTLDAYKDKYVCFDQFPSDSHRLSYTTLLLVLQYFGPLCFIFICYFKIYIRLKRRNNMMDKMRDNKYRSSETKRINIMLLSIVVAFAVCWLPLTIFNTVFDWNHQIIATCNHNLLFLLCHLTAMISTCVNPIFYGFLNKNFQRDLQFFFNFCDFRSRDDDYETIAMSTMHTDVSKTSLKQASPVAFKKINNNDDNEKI

[3] = tested on: HEK293; test: Fluorescence-based counterscreen for potentiators or agonists of NPY-Y2: cell-based high-throughput dose response assay to identify inhibitors of cyclic nucleotide gated ion channel (CNGC) activity. In this assay, the parental HEK293 cell line transfected with a cyclic-nucleotide gated ion channel (CNGC)-based cAMP sensor is used to measure inhibition of isoproterenol-induced CNGC activity by test compound.; conditions: Homo sapiens;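 note: stimulus is 1 µM isoproterenol at EC100 plus PDE inhibitor Ro 20-1724 at 25 µM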
[4] = target: T3, Neuropeptide Y receptor type 2 (Homo sapiens, UniProt P49146); test: Fluorescence-based cell-based high-throughput dose response assay for agonists of NPY-Y2. [Related pubchem assays: 1703 (Screening assay (CNGC inhibitors).), 1359 (Screening assay (NPY-Y2 potentiators or agonists).), 1304 (Screening assay (NPY-Y1 potentiators or agonists).), 1710 (Screening assay (NPY-Y2 agonists).), 1791 (Summary AID.)]
T3 sequence (P49146 whole entry): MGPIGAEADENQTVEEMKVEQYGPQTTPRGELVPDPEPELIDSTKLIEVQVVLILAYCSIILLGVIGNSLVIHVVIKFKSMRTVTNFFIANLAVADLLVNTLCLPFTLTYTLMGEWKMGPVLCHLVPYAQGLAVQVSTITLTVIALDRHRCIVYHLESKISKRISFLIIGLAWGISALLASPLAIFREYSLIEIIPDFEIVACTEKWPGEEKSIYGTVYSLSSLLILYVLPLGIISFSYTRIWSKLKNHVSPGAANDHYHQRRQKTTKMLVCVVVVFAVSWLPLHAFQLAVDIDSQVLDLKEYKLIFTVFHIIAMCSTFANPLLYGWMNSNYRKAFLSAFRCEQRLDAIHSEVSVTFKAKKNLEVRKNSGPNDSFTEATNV

[5] = target: Lysosomal acid glucosylceramidase (Homo sapiens, UniProt P04062); test: Dose response cell-based high throughput screening assay to identify enhancers of beta-glucosidase activity. [Related pubchem assays: 784 ]
Lysosomal acid glucosylceramidase, sequence (P04062 whole entry): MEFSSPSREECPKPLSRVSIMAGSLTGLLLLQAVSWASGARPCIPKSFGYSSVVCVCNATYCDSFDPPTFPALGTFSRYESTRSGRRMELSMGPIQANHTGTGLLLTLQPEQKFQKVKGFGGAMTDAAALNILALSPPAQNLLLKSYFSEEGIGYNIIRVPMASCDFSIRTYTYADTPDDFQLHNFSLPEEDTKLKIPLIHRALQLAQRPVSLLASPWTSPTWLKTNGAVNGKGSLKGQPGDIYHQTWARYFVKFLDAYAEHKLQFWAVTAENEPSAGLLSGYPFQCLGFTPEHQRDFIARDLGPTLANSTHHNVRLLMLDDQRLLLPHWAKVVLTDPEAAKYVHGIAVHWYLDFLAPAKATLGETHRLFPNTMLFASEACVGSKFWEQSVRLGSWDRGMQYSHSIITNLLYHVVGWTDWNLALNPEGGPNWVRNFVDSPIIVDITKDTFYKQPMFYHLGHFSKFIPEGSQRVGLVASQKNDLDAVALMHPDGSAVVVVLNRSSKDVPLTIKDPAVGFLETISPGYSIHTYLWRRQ

[6] = target: T4, Tyrosine-protein phosphatase non-receptor type 7 (Homo sapiens, UniProt P35236); test: SAR analysis of chemical inhibitors of HePTP using a Fluorescent assay - Set 2. [Related pubchem assays (depositor defined):AID1059, AID1077, AID1661, AID2085, AID521]
T4 sequence (P35236 whole entry): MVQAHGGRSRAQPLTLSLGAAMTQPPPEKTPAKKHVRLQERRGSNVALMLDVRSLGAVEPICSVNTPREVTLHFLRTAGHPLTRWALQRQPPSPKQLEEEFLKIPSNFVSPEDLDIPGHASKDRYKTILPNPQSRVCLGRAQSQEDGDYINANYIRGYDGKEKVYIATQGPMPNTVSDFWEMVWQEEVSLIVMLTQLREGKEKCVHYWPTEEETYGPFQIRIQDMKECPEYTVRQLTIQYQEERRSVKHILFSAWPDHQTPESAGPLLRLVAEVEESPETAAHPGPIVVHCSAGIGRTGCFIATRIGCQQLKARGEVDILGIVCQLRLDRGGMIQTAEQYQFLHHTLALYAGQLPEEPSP

[7] = target: Dual specificity protein phosphatase 3 (Homo sapiens, UniProt P51452); test: SAR VHR1 Fluorescent Assay for In Vitro dose response studies Set 2. [Related pubchem assays (depositor defined):AID1654, AID1661, AID1878]
Dual specificity protein phosphatase 3, sequence (P51452 whole entry): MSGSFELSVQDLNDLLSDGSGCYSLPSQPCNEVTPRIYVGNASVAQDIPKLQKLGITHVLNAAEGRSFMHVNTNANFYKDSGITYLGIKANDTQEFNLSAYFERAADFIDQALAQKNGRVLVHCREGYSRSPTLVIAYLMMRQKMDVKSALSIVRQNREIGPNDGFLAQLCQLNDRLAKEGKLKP

SMILES: O=C(c1ccc(F)cc1F)C1CCN(c2ccc([N+](=O)[O-])cn2)CC1
EC50 [1]: > 260 µM (inactive) | EC50 [2]: > 35.4 µM (not active) | EC50 [3]: > 35.4 µM (not active) | EC50 [4]: 27.5 µM (not active)

EC50 [5]: > 50 µM (not active)
SMILES: COc1cccc(NC(=O)C2C3C=CC4(O3)C2C(=O)N(C(C)C)C4C(=O)NC2CCCCC2C)c1 (stereo not drawn)

EC50 [5]: > 50 µM (not active)
SMILES: Cc1ccc(C)c(N(C)S(=O)(=O)c2cccc3nsnc23)c1

SMILES: NS(=O)(=O)c1ccc(NC(=S)N2CCN(Cc3ccccc3)CC2)cc1
IC50 [6]: 49.7 µM (active) | IC50 [7]: 38.1 µM (active)
